Source: patent US20230149504A1, “A[…] USE IN HUMAN VIRAL INFECTIONS” (DEBIOPHARM INTERNATIONAL SA, priority 2020, published 2023)

Legend:
SARS-CoV-2 = experiment: Example 1B: immunofluorescence (anti-dsRNA) quantification of SARS-CoV-2-infected Vero E6 cells; format: cell-based; details: at 10 μM, MOI 0.4, 24 h (FIG. 3)
Method: FIG. 3 represents the experiment scheme of a SARS-CoV-2 infection of Vero E6 cells at an MOI of 0.4 and the percentage of infected cells assessed by immunofluorescence (IF) in the presence of increasing concentrations of alisporivir.
The anti-SARS-CoV-2 effectiveness of alisporivir was confirmed by immunofluorescence. Vero E6 cells were infected by SARS-CoV-2 at an MOI of 0.4 for 2 h in the presence of increasing concentrations of alisporivir (1, 5 and 10 μM). After virus removal, infected cells were incubated for 24 h in the presence of alisporivir and immunostained with an anti-double-stranded-RNA (dsRNA) antibody. Infected cells were quantified using ImageJ software.

[1] = test system: SARS-Cov-2 (isolate from patient infected in Paris)
[2] = test system: clinical isolate of SARS-CoV-2
SARS-Cov-1 = details: cited from earlier work
in vitro [3] = details: African green monkey
in vitro [4] = details: African green monkey; remark: listed apart in the source

C/C=C/C[C@@H](C)[C@@H](O)[C@H]1C(=O)N[C@@H](CC)C(=O)N(C)[C@H](C)C(=O)N(CC)[C@@H](C(C)C)C(=O)N[C@@H](C(C)C)C(=O)N(C)[C@@H](CC(C)C)C(=O)N[C@@H](C)C(=O)N[C@H](C)C(=O)N(C)[C@@H](CC(C)C)C(=O)N(C)[C@@H](CC(C)C)C(=O)N(C)[C@@H](C(C)C)C(=O)N1C [alisporivir, [D-MeAla]3-[EtVal]4-CsA]
inhibition of the number of SARS-CoV-2-infected cells (immunofluorescence) (SARS-CoV-2): complete inhibition
EC50 [1]: 540 nM
percentage of inhibition of SARS-CoV-2 RNA production in cell culture supernatant [1]: > 90%
cytotoxicity (VeroE6 cells): not cytotoxic
maximum viral RNA reduction [2]: 2 log 10
therapeutic index ([2]; clinical isolate of, 2 h): more than 43
EC50 ([2]; clinical isolate of, 48 h): 460 nM
EC90 ([2]; clinical isolate of, 48 h): 3100 nM
fold higher EC50 against SARS-Cov-1 than for HCV replicon (SARS-Cov-1): 10.-50 fold
EC50 (SARS-Cov-1; read-out: EC50 in vitro against different SARS-Cov-1): 2000 to 10000 nM
selectivity ratio (in vitro [3]): > 37
CC50 (in vitro [4]): > 20000 nM
